In patent publication US20210330606A1, “GLUCOSE CONSUMPTION ACCELERATOR AND GLYCOLYSIS ACCELERATOR” (SHINKO SANGYO Co., Ltd., priority 2018, published 2021):
Values joined by “and” are separate entries in the source; they are usually repeats but may differ in a detail not shown here. Identical values can stand only once.

How the values were obtained:
[1] = tested on: rat-derived liver cancer cells (Ry121B, subculture line); conditions: drug 1 mg/ml, control = 100
[2] = tested on: Rat-derived fibroblasts (Py-3Y1-S2, subculture strain); test: Lactate concentration in culture solution of fibroblasts (relative value, control = 100); assay type: cell-based; conditions: drug 1 mg/ml, control = 100 (FIG. 7A)
Procedure: (§1) First, samples of 2-amino-1-cyclohexylethanol and 2-amino-1-phenylethanol were prepared in the same manner as in Example 1. The fibroblasts and the liver cancer cells were cultured under the same conditions as in Examples 1 and 5. […] As a control, the culture was performed in the same manner except that distilled water to which the drug was not added was added to the culture solution instead of the sample.
(§2) After the addition of the drug, the culture solution was diluted so that the weight ratio of the culture solution to distilled water was 1:19, and the lactate concentration of the diluted culture solution was measured. The lactate concentration was measured using a lactate assay kit (product name: Lactate Assay Kit-WST, product of Dojindo Laboratories).

[3] = tested on: rat-derived liver cancer cells (Ry121B, subculture line); test: Lactate concentration in culture solution of liver cancer cells (relative value, control = 100); assay type: cell-based; conditions: drug 1 mg/ml, control = 100 (FIG. 7B)
Procedure: as §1, §2

[4] = tested on: Rat-derived fibroblasts (Py-3Y1-S2, subculture strain); test: Glucose consumption of rat-derived fibroblasts (relative value, control = 100); assay type: cell-based
Excerpt: As drugs, 2-amino-1-cyclohexylethanol (Matrix Biochemicals), 2-aminoethanol (Tokyo Chemical Industry Co., Ltd.), 1-amino-2-propanol (Wako Pure Chemical Industries, Ltd.), 2-amino-1-phenylethanol (Tokyo Chemical Industry Co., Ltd.), 1, 3-bis[tris(hydroxymethyl)-methylamino]propane (Tokyo Chemical Industry Co., Ltd.), N-cyclohexylethanolamine (Tokyo Chemical Industry Co., Ltd.), diethanolamine (Wako Pure Chemical Industries, Ltd.), diethylamine (Wako Pure Chemical Industries, Ltd.), dipropylamine (Tokyo Chemical Industry Co., Ltd.), HEPES sodium salt (MP Biomedicals), metoprolol tartrate (Tokyo Chemical Industry Co., Ltd.), morpholine (Wako Pure Chemical Co., Ltd.), octopamine (MP Biomedicals), propylamine (Tokyo Chemical Industry Co., Ltd.), triethylamine (Wako Pure Chemical Co., Ltd.), timolol maleate (Wako Pure Chemical Industries, Ltd.) and tris(hydroxymethyl)aminomethane (Wako Pure Chemical Industries, Ltd.) were used. Each drug was dissolved in distilled water to prepare a sample.
In the culture, DMEM (Nissui Pharmaceutical Co., Ltd.) was used as a culture medium. […] As a control of the drug, the culture was performed in the same manner except that distilled water to which the drug was not added was added to the culture solution instead of the sample.
After the addition of the drug, the glucose concentration of each of the culture solutions was measured immediately after the start of the culture and after the completion of the culture. The glucose concentration was measured using a glucose assay kit (Waco). Then, the glucose concentration after the completion of the culture was divided by the glucose concentration immediately after the start of the culture (5.6 mmol per liter) to calculate the glucose consumption.
The fibroblasts were cultured. […] Streptozotocin, alloxan, and nicotinamide are drugs all known to produce symptoms of diabetes when administered to the body.
Next, samples of streptozotocin, alloxan, and nicotinamide plus 2-amino-1-phenylethanol (2-A-1-P) were prepared in the same manner. The concentration of 2-A-1-P was 1 mg/ml. The relative value of the glucose consumption was calculated in the same manner.
The fibroblasts were cultured.
The concentration of 2-A-1-P was 0.5 mg/ml. The relative value of the glucose consumption was calculated in the same manner.

Male mice of ICR strain = test: Blood glucose level of mice after oral glucose load with the drug; assay type: in vivo, mouse; conditions: drug 50 mg/kg + glucose 2000 mg/kg oral
Procedure: As a drug, 2-amino-1-phenylethanol was used. First, glucose (KANTO CHEMICAL CO., INC.) was dissolved in water for injection so as to achieve a concentration of 200 mg/ml, thereby preparing a glucose solution. Next, the drug was dissolved in the water for injection, and then the glucose solution was added thereto so that the drug and glucose had final concentrations of 2.5 mg/ml and 100 mg/ml, respectively, thereby preparing a sample. As a control of the drug, the culture was performed in the same manner except that 100 mg/ml glucose solution to which the drug was not added was used instead of the sample.
Male mice of 6-week-old ICR strain were purchased from Japan SLC, Inc., and preliminary rearing was carried out for about 1 week to check there was no abnormality in performance status. The conditions for the preliminary rearing were as follows: 4 mice each were housed in a polycarbonate cage, room temperature was 23° C.±3° C., and illumination time was 12 hours/day. Diets (mice and rat chow, product of Nosan Corporation) and drinking water (tap water) were freely ingested.
After the preliminary rearing, the mice were fasted for about 21 hours, and then body weight and blood glucose levels were measured. The mice were divided into the total of two groups, namely, a test group and a control group to ensure that there was no variation in blood glucose levels between the groups. The number of animals in each group was eight.
After the grouping, mice of the test group and the control group were orally administered a single dose of the sample and the control, respectively, using a gastric sonde to a dose volume of 20 ml/kg. That is, the test group mice were administered the drug and glucose at doses of 50 mg/kg and 2000 mg/kg, respectively, and the control group mice were administered glucose at a dose of 2000 mg/kg. With the time of the administration being regarded as 0 minutes, the blood glucose level was measured at 30 minutes, 60 minutes, 90 minutes, and 120 minutes. The blood glucose level was measured by using an ACCU-CHEK Aviva (Roche Diagnostics K.K.), blood was collected by inserting an injection needle into the tip of the tail, and the blood glucose level was measured for the collected blood.
As to the blood glucose levels at 0 minutes, 30 minutes, 60 minutes, 90 minutes and 120 minutes, the test group and the control group were compared by t-test. The significance levels were 5% and 1%.
In addition, the area under the curves (AUCs) were calculated for the measured blood glucose levels. The AUC was calculated by calculating the area surrounded by the measurement curve and a straight line parallel to the time axis and passing through the measured value at the time of administration in the graph with the measured value on the vertical axis and the time on the horizontal axis. Then, the test group and the control group were compared by t-test for AUC in the same manner as the comparison for the blood glucose level.

Compound: NCC(O)c1ccccc1 (stereo not drawn) [2-amino-1-phenylethanol]
- relative value of glucose consumption [1]: about 140
- relative value of lactate concentration [2]: about 185
- relative value of lactate concentration [3]: about 135
- relative value of glucose consumption ([4]; Example 2, fibroblasts, drug 0.1 mg/ml, control = 100): about 130
- relative value of glucose consumption ([4]; Example 2, fibroblasts, drug 0.25 mg/ml, control = 100): about 140
- relative value of glucose consumption ([4]; Example 2, fibroblasts, drug 0.5 mg/ml, control = 100): about 160
- relative value of glucose consumption ([4]; Example 3, 2-A-1-P 1 mg/ml in addition to alloxan 1 mg/ml): ≥ 100
- relative value of glucose consumption ([4]; Example 3, 2-A-1-P 1 mg/ml in addition to nicotinamide 1 mg/ml): ≥ 100
- relative value of glucose consumption ([4]; Example 3, 2-A-1-P 1 mg/ml in addition to streptozotocin 1 mg/ml): ≥ 100
- relative value of glucose consumption ([4]; Example 4, 2-A-1-P 0.5 mg/ml in addition to V2O5): about 140
- relative value of glucose consumption ([4]; Example 4, 2-A-1-P 0.5 mg/ml in addition to concanavalin A 100 μg/ml): about 150
- relative value of glucose consumption ([4]; Example 4, 2-A-1-P 0.5 mg/ml in addition to vanadium): about 145
- relative value of glucose consumption ([4]; fibroblasts, drug 0.5 mg/ml, 12 to 24 hours, control = 100 (FIG. 1A, 2A)): significantly increased glucose consumption
- relative value of glucose consumption ([4]; fibroblasts, drug 1 mg/ml, 12 to 24 hours, control = 100 (FIG. 1B, 2B)): significantly increased glucose consumption
- AUC Calculated value (blood glucose) (Male mice of ICR strain; individual mice, 0-120 minutes above value at administration): 173 mg/dL·h and 142 mg/dL·h (2×) and 177 mg/dL·h and 171 mg/dL·h and 132 mg/dL·h and 127 mg/dL·h and 258 mg/dL·h
- blood glucose level (Male mice of ICR strain; individual mice, 0 minutes (time of administration)): 46 mg/dL and 53 mg/dL and 61 mg/dL and 70 mg/dL and 54 mg/dL and 60 mg/dL and 86 mg/dL and 59 mg/dL
- blood glucose level (Male mice of ICR strain; individual mice, 30 minutes post-administration): 177 mg/dL and 194 mg/dL (2×) and 222 mg/dL and 165 mg/dL and 202 mg/dL and 219 mg/dL and 256 mg/dL
- blood glucose level (Male mice of ICR strain; individual mice, 60 minutes post-administration): 151 mg/dL and 136 mg/dL (2×) and 180 mg/dL and 171 mg/dL and 141 mg/dL and 160 mg/dL and 223 mg/dL
- blood glucose level (Male mice of ICR strain; individual mice, 90 minutes post-administration): 121 mg/dL and 93 mg/dL and 138 mg/dL (2×) and 117 mg/dL and 91 mg/dL and 120 mg/dL and 176 mg/dL
- blood glucose level (Male mice of ICR strain; individual mice, 120 minutes post-administration): 116 mg/dL and 91 mg/dL and 112 mg/dL and 113 mg/dL and 108 mg/dL and 79 mg/dL and 111 mg/dL and 134 mg/dL
- AUC Mean value ± Standard error (blood glucose) (Male mice of ICR strain; test group No. 1 to No. 8): 165 ± 15 mg·h/dL
